IC50 data for twelve compounds are collected here from patent US20070021419A1, “2-Aminophenyl-4-phenylpyrimidines as kinase inhibitors” (Cyclacel Limited, priority 2003, published 2007).

In one experiment the target is PLK-1 (Homo sapiens, UniProt P53350). The experiment is described as follows: Kinase assay, radioactive phosphate incorporation, PLK-1. The note with it: 100 μM ATP, 30° C.; read-out: Kinase inhibition IC50 PLK-1. It counts as biochemical. As to the method: (§1) The compounds from the examples above were investigated for their ability to inhibit the enzymatic activity of various protein kinases. This was achieved by measurement of incorporation of radioactive phosphate from ATP into appropriate polypeptide substrates. Recombinant protein kinases and kinase complexes were produced or obtained commercially. Assays were performed using 96-well plates and appropriate assay buffers (typically 25 mM β-glycerophosphate, 20 mM MOPS, 5 MM EGTA, 1 mM DTT, 1 mM Na3VO3, pH 7.4), into which were added 2-4 μg of active enzyme with appropriate substrates. The reactions were initiated by addition of Mg/ATP mix (15 mM MgCl2+100 μM ATP with 30-50 kBq per well of [γ-^32P]-ATP) and mixtures incubated as required at 30° C. Reactions were stopped on ice, followed by filtration through p81 filterplates or GF/C filterplates (Whatman Polyfiltronics, Kent, UK). After washing 3 times with 75 mM aq orthophosphoric acid, plates were dried, scintillant added and incorporated radioactivity measured in a scintillation counter (TopCount, Packard Instruments, Pangbourne, Berks, UK). Compounds for kinase assay were made up as 10 mM stocks in DMSO and diluted into 10% DMSO in assay buffer.
PLK-1, sequence (P53350 whole entry, species assumed): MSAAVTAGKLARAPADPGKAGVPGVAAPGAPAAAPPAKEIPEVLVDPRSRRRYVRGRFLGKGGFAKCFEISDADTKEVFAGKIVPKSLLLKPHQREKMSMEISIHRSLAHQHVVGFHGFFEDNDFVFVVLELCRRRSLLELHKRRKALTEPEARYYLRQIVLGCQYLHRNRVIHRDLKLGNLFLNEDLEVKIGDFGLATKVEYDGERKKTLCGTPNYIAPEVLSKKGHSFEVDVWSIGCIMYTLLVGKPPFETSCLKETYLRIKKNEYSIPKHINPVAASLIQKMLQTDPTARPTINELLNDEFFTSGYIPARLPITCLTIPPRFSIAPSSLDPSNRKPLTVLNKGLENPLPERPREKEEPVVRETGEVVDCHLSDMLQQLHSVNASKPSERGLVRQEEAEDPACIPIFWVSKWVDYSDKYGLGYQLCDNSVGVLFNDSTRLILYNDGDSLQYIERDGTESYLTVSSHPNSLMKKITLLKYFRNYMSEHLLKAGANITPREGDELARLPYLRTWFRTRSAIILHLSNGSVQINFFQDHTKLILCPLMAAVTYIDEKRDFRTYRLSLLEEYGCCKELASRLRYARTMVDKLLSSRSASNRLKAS

The subject of another experiment is Saos-2. Nature of the experiment: 72-h MTT cytotoxicity assay, Saos-2. It counts as cell-based. The note with it: Homo sapiens, read-out: 72-h MTT IC50 Saos-2, Saos-2 cell line. An outline of the steps: (§2)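 Standard proliferation test: 72 h compound exposure at 37° C in triplicate, followed by MTT staining and DMSO solubilisation.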
A general note: Formazan colour is commonly taken as a measure of viable cells.

In another experiment the test system is A549. Nature of the experiment: 72-h MTT cytotoxicity assay, A549. The experiment is classed as cell-based. The note with it: Homo sapiens, read-out: 72-h MTT IC50 A549, A549 cell line. An outline of the steps: as §2
The test system of another experiment is HT29. The experiment is described as follows: 72-h MTT cytotoxicity assay, HT29. It counts as cell-based. The following applies: Homo sapiens, HT-29, read-out: 72-h MTT IC50 HT29, HT29 cell line. An outline of the steps: as §2
The target of another experiment is CDK2/cyclin E (Homo sapiens, UniProt P24941). The experiment is described as follows: Kinase assay, radioactive phosphate incorporation, CDK2/cyclin E. The experiment is classed as biochemical. The note with it: 100 μM ATP, 30° C.; read-out: Kinase inhibition IC50 CDK2/cyclin E. An outline of the steps: (§3)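 Inhibition is measured as reduced transfer of radioactive phosphate to a polypeptide substrate by 2-4 μg of recombinant enzyme. Mixtures with Mg/ATP (100 μM ATP, 15 mM MgCl2, [γ-32P]-ATP) in pH 7.4 MOPS-based buffer incubate at 30° C, are stopped on ice, filtered and counted.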

The subject of experiment [1] is transformed human cell lines (A549, HT29, Saos-2). The experiment is described as follows: 72-h MTT cytotoxicity assay, average of cell lines. The following applies: read-out: 72-h MTT IC50 Average, average of A549, HT29, Saos-2. The experiment is classed as cell-based. An outline of the steps: as §2
The next experiment addresses CDK1/cyclin B (Homo sapiens, UniProt P06493). Nature of the experiment: Kinase assay, radioactive phosphate incorporation, CDK1/cyclin B. It counts as biochemical. The following applies: 100 μM ATP, 30° C.; read-out: Kinase inhibition IC50 CDK1/cyclin B. An outline of the steps: as §3
The target of the next experiment is CDK9/cyclin T1 (Homo sapiens, UniProt P50750). Nature of the experiment: Kinase assay, radioactive phosphate incorporation, CDK9/cyclin T1. The note with it: 100 μM ATP, 30° C.; read-out: Kinase inhibition IC50 CDK9/cyclin T1. It counts as biochemical. An outline of the steps: as §3
CDK9/cyclin T1, sequence (P50750 whole entry, species assumed): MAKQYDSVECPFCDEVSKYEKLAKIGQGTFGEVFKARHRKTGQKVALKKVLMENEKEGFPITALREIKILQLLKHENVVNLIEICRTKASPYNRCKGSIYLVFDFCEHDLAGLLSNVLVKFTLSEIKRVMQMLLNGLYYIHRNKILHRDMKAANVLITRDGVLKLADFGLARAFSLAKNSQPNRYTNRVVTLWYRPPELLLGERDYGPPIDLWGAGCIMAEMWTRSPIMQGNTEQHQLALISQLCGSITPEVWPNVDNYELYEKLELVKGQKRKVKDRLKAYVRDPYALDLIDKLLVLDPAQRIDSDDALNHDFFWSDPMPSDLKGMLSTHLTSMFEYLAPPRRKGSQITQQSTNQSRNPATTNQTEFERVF
CDK9/cyclin T1, sequence (O60563 whole entry partner, species assumed): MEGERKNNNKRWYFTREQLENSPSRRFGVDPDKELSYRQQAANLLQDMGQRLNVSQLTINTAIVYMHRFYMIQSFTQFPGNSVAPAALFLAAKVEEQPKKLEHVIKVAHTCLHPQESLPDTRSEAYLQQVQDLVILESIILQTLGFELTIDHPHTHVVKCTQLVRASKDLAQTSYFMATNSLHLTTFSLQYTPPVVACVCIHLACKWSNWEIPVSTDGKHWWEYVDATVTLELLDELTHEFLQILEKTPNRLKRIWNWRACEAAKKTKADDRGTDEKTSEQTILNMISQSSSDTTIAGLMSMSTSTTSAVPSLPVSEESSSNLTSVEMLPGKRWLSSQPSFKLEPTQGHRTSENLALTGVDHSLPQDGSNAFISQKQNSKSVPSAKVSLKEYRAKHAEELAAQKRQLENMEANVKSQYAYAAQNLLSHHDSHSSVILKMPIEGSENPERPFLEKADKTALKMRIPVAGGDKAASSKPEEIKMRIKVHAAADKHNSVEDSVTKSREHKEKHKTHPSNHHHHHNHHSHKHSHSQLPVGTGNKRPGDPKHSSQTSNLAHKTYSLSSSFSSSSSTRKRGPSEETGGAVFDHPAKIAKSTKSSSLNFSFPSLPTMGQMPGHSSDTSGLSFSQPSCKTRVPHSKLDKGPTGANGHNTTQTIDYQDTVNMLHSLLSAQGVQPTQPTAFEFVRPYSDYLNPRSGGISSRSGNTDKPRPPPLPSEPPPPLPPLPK
The target in the next experiment is CDK7/cyclin H (Homo sapiens, UniProt P50613). The experiment is described as follows: Kinase assay, radioactive phosphate incorporation, CDK7/cyclin H. The experiment is classed as biochemical. The note with it: 100 μM ATP, 30° C.; read-out: Kinase inhibition IC50 CDK7/cyclin H. An outline of the steps:
as §3

In another experiment the target is T1, Aurora-A (Homo sapiens, UniProt O14965).
T1 sequence (O14965 1-403): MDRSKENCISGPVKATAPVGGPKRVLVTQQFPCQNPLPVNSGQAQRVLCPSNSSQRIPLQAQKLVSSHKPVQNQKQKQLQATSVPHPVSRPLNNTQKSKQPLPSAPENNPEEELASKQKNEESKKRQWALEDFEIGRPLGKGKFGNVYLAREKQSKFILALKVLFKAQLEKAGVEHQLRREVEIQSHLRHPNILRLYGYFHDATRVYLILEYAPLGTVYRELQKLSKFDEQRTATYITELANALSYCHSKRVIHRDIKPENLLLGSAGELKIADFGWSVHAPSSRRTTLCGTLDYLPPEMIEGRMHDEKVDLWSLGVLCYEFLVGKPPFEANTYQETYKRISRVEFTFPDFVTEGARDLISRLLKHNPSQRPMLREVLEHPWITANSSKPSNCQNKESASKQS
Nature of the experiment: Kinase assay, radioactive phosphate incorporation, Aurora-A. The experiment is classed as biochemical. The following applies: 100 μM ATP, 30° C.; read-out: Kinase inhibition IC50 Aurora-A. How it is done:
as §1

The target of another experiment is CDK2/cyclin A (Homo sapiens, UniProt P24941). Nature of the experiment: Kinase assay, radioactive phosphate incorporation, CDK2/cyclin A. The experiment is classed as biochemical. The following applies: 100 μM ATP, 30° C.; read-out: Kinase inhibition IC50 CDK2/cyclin A. An outline of the steps:
as §3

The target in another experiment is CDK4/cyclin D1 (Homo sapiens, UniProt P11802). The experiment is described as follows: Kinase assay, radioactive phosphate incorporation, CDK4/cyclin D1. The experiment is classed as biochemical. The following applies: 100 μM ATP, 30° C.; read-out: Kinase inhibition IC50 CDK4/cyclin D1. An outline of the steps:
as §3

Another experiment addresses GSK3β (Homo sapiens, UniProt P49841). The experiment is described as follows: Kinase assay, radioactive phosphate incorporation, GSK3β. The experiment is classed as biochemical. The note with it: 100 μM ATP, 30° C.; read-out: Kinase inhibition IC50 GSK3β. An outline of the steps:
as §3

GSK3β, sequence (P49841 whole entry, species assumed): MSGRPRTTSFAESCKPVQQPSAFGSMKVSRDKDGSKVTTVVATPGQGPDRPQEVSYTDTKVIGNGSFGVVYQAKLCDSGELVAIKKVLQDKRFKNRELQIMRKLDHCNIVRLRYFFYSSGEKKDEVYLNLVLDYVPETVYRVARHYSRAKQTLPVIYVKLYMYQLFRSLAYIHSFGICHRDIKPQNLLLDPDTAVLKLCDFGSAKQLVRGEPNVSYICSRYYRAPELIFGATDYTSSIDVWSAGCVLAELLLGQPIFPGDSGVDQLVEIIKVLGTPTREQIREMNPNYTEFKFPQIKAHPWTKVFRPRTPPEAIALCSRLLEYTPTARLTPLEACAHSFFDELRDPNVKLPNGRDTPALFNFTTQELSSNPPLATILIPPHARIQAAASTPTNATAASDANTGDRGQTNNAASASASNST
CDK1/cyclin B, sequence (P06493 whole entry, species assumed): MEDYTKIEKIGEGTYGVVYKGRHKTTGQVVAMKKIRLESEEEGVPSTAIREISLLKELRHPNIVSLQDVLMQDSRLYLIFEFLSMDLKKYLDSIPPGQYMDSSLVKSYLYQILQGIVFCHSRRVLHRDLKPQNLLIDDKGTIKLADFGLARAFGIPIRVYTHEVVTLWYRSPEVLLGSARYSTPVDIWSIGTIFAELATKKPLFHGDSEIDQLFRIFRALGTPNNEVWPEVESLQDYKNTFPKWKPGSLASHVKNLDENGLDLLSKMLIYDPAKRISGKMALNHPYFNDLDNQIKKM
CDK1/cyclin B, sequence (P14635 whole entry partner, species assumed): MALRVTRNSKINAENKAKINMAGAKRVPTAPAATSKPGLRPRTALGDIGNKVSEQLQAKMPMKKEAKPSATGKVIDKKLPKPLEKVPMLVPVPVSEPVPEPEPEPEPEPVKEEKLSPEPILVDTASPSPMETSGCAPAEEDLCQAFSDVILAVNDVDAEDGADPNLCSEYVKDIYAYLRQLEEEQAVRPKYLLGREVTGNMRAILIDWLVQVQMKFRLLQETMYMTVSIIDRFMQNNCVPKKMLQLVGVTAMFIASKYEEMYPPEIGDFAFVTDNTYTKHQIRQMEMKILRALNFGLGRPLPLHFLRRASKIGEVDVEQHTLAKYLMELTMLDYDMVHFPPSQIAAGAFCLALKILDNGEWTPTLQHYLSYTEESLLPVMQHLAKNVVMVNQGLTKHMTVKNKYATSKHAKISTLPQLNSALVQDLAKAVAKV
CDK4/cyclin D1, sequence (P11802 whole entry, species assumed): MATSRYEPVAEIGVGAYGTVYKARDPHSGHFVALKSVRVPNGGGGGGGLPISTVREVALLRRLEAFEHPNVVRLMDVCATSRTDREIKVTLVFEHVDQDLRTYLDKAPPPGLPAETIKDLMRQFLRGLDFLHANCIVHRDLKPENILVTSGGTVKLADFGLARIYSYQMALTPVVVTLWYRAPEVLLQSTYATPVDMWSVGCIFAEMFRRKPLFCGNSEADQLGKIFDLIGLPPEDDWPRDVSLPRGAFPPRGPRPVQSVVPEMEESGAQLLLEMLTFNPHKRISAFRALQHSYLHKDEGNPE
CDK4/cyclin D1, sequence (P24385 whole entry partner, species assumed): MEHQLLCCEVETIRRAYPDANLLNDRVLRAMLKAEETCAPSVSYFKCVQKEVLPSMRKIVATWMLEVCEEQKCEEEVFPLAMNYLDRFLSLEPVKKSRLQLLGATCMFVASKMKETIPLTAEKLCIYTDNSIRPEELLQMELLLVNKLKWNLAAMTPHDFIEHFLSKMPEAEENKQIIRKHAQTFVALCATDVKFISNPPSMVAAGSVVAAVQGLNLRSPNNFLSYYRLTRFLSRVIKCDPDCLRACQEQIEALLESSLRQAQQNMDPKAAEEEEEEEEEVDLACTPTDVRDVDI
CDK7/cyclin H, sequence (P50613 whole entry, species assumed): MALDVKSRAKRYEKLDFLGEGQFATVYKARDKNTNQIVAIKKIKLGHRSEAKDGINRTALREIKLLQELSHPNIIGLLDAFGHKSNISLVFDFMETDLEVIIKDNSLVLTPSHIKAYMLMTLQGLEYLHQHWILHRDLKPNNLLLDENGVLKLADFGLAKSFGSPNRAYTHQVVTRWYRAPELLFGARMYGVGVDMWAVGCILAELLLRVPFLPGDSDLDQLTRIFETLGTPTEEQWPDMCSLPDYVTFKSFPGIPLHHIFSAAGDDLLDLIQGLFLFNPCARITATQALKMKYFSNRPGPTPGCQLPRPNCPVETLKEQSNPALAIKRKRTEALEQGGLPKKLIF
CDK7/cyclin H, sequence (P51946 whole entry partner, species assumed): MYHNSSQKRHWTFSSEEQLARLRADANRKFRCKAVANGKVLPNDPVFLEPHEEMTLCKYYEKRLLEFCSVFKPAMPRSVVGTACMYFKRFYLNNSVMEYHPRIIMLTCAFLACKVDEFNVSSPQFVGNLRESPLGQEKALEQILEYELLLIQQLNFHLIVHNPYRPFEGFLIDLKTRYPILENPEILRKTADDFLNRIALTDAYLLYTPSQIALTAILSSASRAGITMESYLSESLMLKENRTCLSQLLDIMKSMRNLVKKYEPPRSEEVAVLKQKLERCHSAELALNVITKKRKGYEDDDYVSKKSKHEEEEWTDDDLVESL

For `O=[N+]([O-])c1ccc(Nc2nccc(-c3cccc([N+](=O)[O-])c3)n2)cc1` [Compound 2, (4-Nitro-phenyl)-[4-(3-nitro-phenyl)-pyrimidin-2-yl]-amine], the IC50 on PLK-1 turned out to be 6500 nM.

For the compound `CCN(C(C)=O)c1cccc(-c2ccnc(Nc3ccc(O)cc3)n2)c1` [Compound 10, N-Ethyl-N-{3-[2-(4-hydroxy-phenylamino)-pyrimidin-4-yl]-phenyl}-acetamide], the IC50 is 4800 nM at PLK-1; 5400 nM in the experiment on Saos-2; 8000 nM with A549; 9700 nM in the experiment on HT29; 160 nM at CDK2/cyclin E; 7700 ± 2200 nM in [1].

Take `CC(=O)Nc1cccc(-c2ccnc(Nc3ccc(O)cc3)n2)c1` [Compound 11, N-{3-[2-(4-Hydroxy-phenylamino)-pyrimidin-4-yl]-phenyl}-acetamide]: the IC50 came to 6900 nM at PLK-1; 7100 nM in the experiment on Saos-2; 8300 nM with A549; 7500 nM in the experiment with HT29; 250 nM on CDK2/cyclin E; 7600 ± 600 nM in experiment [1].

As for `CC(=O)N(CC(C)C)c1cccc(-c2ccnc(Nc3ccc(O)cc3)n2)c1` [Compound 13, N-{3-[2-(4-Hydroxy-phenylamino)-pyrimidin-4-yl]-phenyl}-N-isobutyl-acetamide], the IC50 on PLK-1 came out at 14500 nM; at CDK2/cyclin E, 550 nM.

Take `CNc1cccc(-c2ccnc(Nc3ccc(O)cc3)n2)c1` [Compound 14, 4-[4-(3-Methylamino-phenyl)-pyrimidin-2-ylamino]-phenol]: the IC50 worked out at 13700 nM on PLK-1 and 45 nM at CDK2/cyclin E.

With `Nc1cccc(-c2ccnc(Nc3ccc(O)cc3)n2)c1` [Compound 15, 4-[4-(3-Amino-phenyl)-pyrimidin-2-ylamino]-phenol], the IC50 at PLK-1 came to 7800 nM; at CDK2/cyclin E, 360 nM.

`Clc1ccc(Nc2nccc(-c3cccc(Cl)c3)n2)cc1` [Compound 16, (4-Chloro-phenyl)-[4-(3-chloro-phenyl)-pyrimidin-2-yl]-amine]: at PLK-1, the IC50 stood at 8700 nM.

With `CN(C)Cc1cccc(-c2ccnc(Nc3ccc(N4CCOCC4)cc3)n2)c1` [Compound 82, [4-(3-Dimethylaminomethyl-phenyl)-pyrimidin-2-yl]-(4-morpholin-4-yl-phenyl)-amine], the IC50 was 1100 nM on CDK1/cyclin B; 6600 nM with Saos-2; 6200 nM with A549; 4500 nM in the experiment on HT29; 330 nM on CDK9/cyclin T1; 2900 nM on CDK7/cyclin H. Besides, the IC50 turned out to be 400 nM at Aurora-A; 660 nM on CDK2/cyclin E; 1500 nM at CDK2/cyclin A; 4600 nM on CDK4/cyclin D1; 5800 ± 1100 nM in experiment [1]; 2300 nM on GSK3β.

For `NC(=O)C1CCCN(Cc2cccc(-c3ccnc(Nc4cccc([N+](=O)[O-])c4)n3)c2)C1` (centres unmarked) [Compound 99, 1-{3-[2-(3-Nitro-phenylamino)-pyrimidin-4-yl]-benzyl}-piperidine-3-carboxylic acid amide], the IC50 was found to be 1200 nM at CDK1/cyclin B; 4100 nM with Saos-2; 3000 nM with A549; 2600 nM with HT29; 1 nM on CDK9/cyclin T1; 180 nM at CDK7/cyclin H. Besides, the IC50 on Aurora-A came out at 1000 nM; on CDK2/cyclin E, 200 nM; at CDK2/cyclin A it was 1700 nM; at CDK4/cyclin D1, 3800 nM; in [1], 3200 ± 800 nM; on GSK3β, 40 nM.

With `CN(c1cccc(-c2ccnc(Nc3cccc([N+](=O)[O-])c3)n2)c1)S(C)(=O)=O` [Compound 129, N-Methyl-N-{3-[2-(3-nitro-phenylamino)-pyrimidin-4-yl]-phenyl}-methanesulfonamide], the IC50 on CDK1/cyclin B stood at 830 nM; at CDK9/cyclin T1, 20 nM; on CDK7/cyclin H, 650 nM; on Aurora-A, 270 nM; at CDK2/cyclin E, 70 nM; on CDK2/cyclin A, 440 nM. The figures for the IC50 at CDK4/cyclin D1 and on GSK3β were 2600 nM and 130 nM, respectively.

Consider `CN(c1cccc(-c2ccnc(Nc3cccc(O)c3)n2)c1)S(C)(=O)=O` [Compound 130, N-{3-[2-(3-Hydroxy-phenylamino)-pyrimidin-4-yl]-phenyl}-N-methyl-methanesulfonamide], for which the IC50 at CDK1/cyclin B came out at 960 nM; at CDK9/cyclin T1 it was 4 nM; on CDK7/cyclin H, 1300 nM; at Aurora-A it was 120 nM; at CDK2/cyclin E it was 220 nM; on CDK2/cyclin A, 620 nM. Besides, the IC50 came out at 1300 nM on CDK4/cyclin D1 and 50 nM at GSK3β.

Consider `CN(c1cccc(-c2ccnc(Nc3ccc(O)cc3)n2)c1)S(C)(=O)=O` [Compound 131, N-{3-[2-(4-Hydroxy-phenylamino)-pyrimidin-4-yl]-phenyl}-N-methyl-methanesulfonamide], for which the IC50 at CDK1/cyclin B is 2100 nM; at CDK9/cyclin T1, 10 nM; on CDK7/cyclin H, 1400 nM; at Aurora-A, 140 nM; on CDK2/cyclin E, 180 nM; on CDK2/cyclin A, 450 nM. For the same compound, the IC50 on CDK4/cyclin D1 was 2500 nM; at GSK3β, 130 nM.
